Experimental data taken from the METLIN SMRT retention time set (Domingo-Almenara et al. 2019).

Test: gradient 5% acetonitrile 3 min, to 50% in 2 min, to 85% in 15 min, held 3 min, 100 µL/min
Conditions: column: Zorbax Extend-C18 2.1 x 50 mm; eluents: water / acetonitrile, 0.1% formic acid
In short: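 Over 3 months, pure standards in mixtures of ~100 molecules were run by HPLC coupled to a quadrupole time-of-flight mass spectrometer in positive and negative ionization mode. The column was a Zorbax Extend-C18 (2.1 × 50 mm, 1.8 μm) at 100 μL/min, eluted with water and acetonitrile each holding 0.1% formic acid, with 40 μL dead and 900 μL dwell volumes. Retention time was determined from adduct peaks chosen by software and checked manually.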

Row | RP-LC retention time [s] | Structure (SMILES)
1 | 629 | O=C1CN(C(=O)CCC[C@@H]2[C@H]3CCCN4CCC[C@@H](CN2C(=O)c2cccnc2)[C@@H]34)CCN1
2 | 788 | CCCC(=O)Nc1ccc(-n2cnc(C(=O)N3CCN(c4ccccc4F)CC3)c2)nc1
3 | 756 | COc1ccc(NC(=O)CSc2nc(N3CCCCC3)nc3ccccc23)cc1Cl
4 | 878 | Cc1cc(C(=O)NCc2ccc(Cl)cc2)n(-c2ccccc2)n1
5 | 698 | O=C(c1ccc2c(c1)N(Cc1ccccc1)CCS2)N1CCN(c2ccccn2)CC1
6 | 768 | COc1ccc(C(=O)N2CCC3(CC2)NC(=O)c2cc(Cl)ccc2N3C)cc1
7 | 1030 | COc1ccc2[nH]c3c(c2c1)CCN1C(=O)N(c2cccc(Cl)c2)C(=O)C31C (stereo not drawn)
8 | 574 | COc1ccc(N2CCN(C(=O)c3cn4c(n3)CCCC4)CC2)cc1
9 | 720 | O=C(CC(=O)N1CCN(c2ccccc2)CC1)Nc1ccc2nc3n(c(=O)c2c1)CCCCC3
10 | 838 | O=c1ccn(-c2ccc(F)cc2)nc1-c1nc(-c2ccccc2F)no1
11 | 767 | CCOC(=O)c1sc2cccc(F)c2c1S(=O)(=O)N1CCN(c2ccccn2)CC1
12 | 648 | CCN(CCN(C)C)c1ccc(C(=O)O)cc1NS(=O)(=O)c1ccc(Br)cc1
13 | 737 | O=C(CC1c2ncccc2C(=O)N1c1ccc(F)cc1)NCc1cc(F)ccc1F (stereo not drawn)
14 | 1200 | COc1cccc(Cn2c(=O)c3sccc3n(Cc3nc(-c4ccc(C)c(C)c4)no3)c2=O)c1
15 | 930 | Cc1nn(CC(=O)NC2CCCCCC2)c(=O)c2nc(-c3ccccc3)sc12
16 | 857 | Cc1ccc(CNC(=O)Cn2c(=O)cc(-c3nc(C)no3)c3ccccc32)cc1
17 | 673 | Cc1nc(-c2ccccc2)nc2c1CCC(=O)N2Cc1cccnc1
18 | 1140 | CCOc1ccc(-n2c(=O)c3sccc3n(Cc3nc(-c4ccc(Cl)c(F)c4)no3)c2=O)cc1
19 | 1050 | Cc1ccc(C)c(NC(=O)Cn2cnc3c(sc4nc(-c5ccccc5)ccc43)c2=O)c1
20 | 980 | COc1cccc(CNC(=O)c2c(C)sc3ccn(Cc4ccc(F)cc4)c(=O)c23)c1
21 | 910 | COc1ccc(C2CC(=O)N(c3ccc(OC)c(OC)c3)C(=O)C2)cc1OC

Row | RP-LC retention time [s] | Structure (SMILES)
22 | 725 | CC(C)c1ccc(C2C(C(=O)c3ccccc3)C(=O)C(=O)N2CCCN2CCOCC2)cc1 (stereo not drawn)
23 | 1040 | Cn1c(=O)c2c(nc(/C=C/c3cccc(Cl)c3)n2C)n(C)c1=O
24 | 631 | O=C(c1ccccn1)N1CCC(n2c(-c3ccoc3)nc3cccnc32)C1 (stereo not drawn)
25 | 898 | Cc1oc2ccn(Cc3cccc(F)c3)c(=O)c2c1C(=O)N(C)Cc1ccccc1
26 | 880 | COC(=O)c1c(C)[nH]c(C(=O)N2CCC(CC(=O)NC(C)CCc3ccccc3)CC2)c1C (stereo not drawn)
27 | 1020 | Cc1ccccc1CNC(=O)C1(C)CCCN(C(=O)Nc2ccccc2Br)C1 (stereo not drawn)
28 | 821 | CCc1ccc(N2C(=O)CN(S(=O)(=O)c3ccccc3)CC2(C)C(=O)NC2CCCC2)cc1 (stereo not drawn)
29 | 649 | CCOc1ccccc1CNC(=O)c1ccc2[nH]c3c(c2c1)CN(C(C)=O)CC3
30 | 608 | COc1cccc(C2CC(c3ccc(F)cc3)=NC3(CCN(C(C)C)CC3)N2)c1O (stereo not drawn)
31 | 749 | COc1ccc(CNC(=O)c2ccc3c(c2)OCO3)c(OC)c1
32 | 928 | CCc1onc(C)c1C1CCCN1C(=O)c1cc(-c2ccc3c(c2)OCO3)on1 (stereo not drawn)
33 | 628 | O=C(c1csc(N2CCCC2)n1)N1CCOCC1
34 | 805 | O=C1NCCCCCCN(C(=O)Nc2ccccc2)[C@H]2CCCC[C@@H]12
35 | 1160 | Cc1cc(OC(=O)c2cc3ccccc3o2)c([N+](=O)[O-])c(=O)[nH]1
36 | 612 | CC1CC(=O)NN=C1c1ccc(N)c([N+](=O)[O-])c1 (stereo not drawn)
37 | 676 | COc1ccc(-n2nc(C(=O)N3CCN(c4ccccn4)CC3)c3c4ccccc4n(C)c3c2=O)cc1
38 | 1250 | COc1cccc(C2Cn3nnc(-c4nc(-c5ccc(OC(C)C)cc5)no4)c3CO2)c1 (stereo not drawn)
39 | 600 | CC(=O)NCc1nc2ccccc2n1CC(=O)Nc1ccccc1
40 | 623 | NC(=O)c1cc(-c2ccccc2)n[nH]1
41 | 621 | CO[C@H]1C(=O)N(C(C)C)[C@H]1C1CCN(C(=O)c2cnccn2)CC1

Further lines, the compound ahead of its results:

Row | Structure (SMILES) | RP-LC retention time [s]
42 | CC(C)n1cnnc1CC1CN(C(=O)Nc2ccccc2F)C1 | 608
43 | Cc1nn(C)c2nc(OC(C)C(=O)NCCc3ccccc3)cc(C(F)(F)F)c12 (stereo not drawn) | 972
44 | CC(Cc1ccco1)NC(=O)c1cccn(C)c1=O (stereo not drawn) | 649
45 | Cc1ccccc1N1CCN(C(=O)CCC2CCN(c3cc(NC4CC4)ncn3)CC2)CC1 | 768
46 | COc1cc(NC(=O)N2C[C@@H](F)C[C@H]2C(=O)N2CCc3ccccc3C2)cc(OC)c1 | 752
47 | Cc1noc(C)c1-c1ccc(S(=O)(=O)NC2CCCCC2)cc1 | 959
48 | Cc1cc(=O)n(CC(=O)NCc2ccccc2)c(N2CCCCC2)n1 | 652
49 | CCCNC(=O)C1CCCN(c2ccc(SCC(=O)Nc3cccc(C)c3C)nn2)C1 (stereo not drawn) | 665
50 | O=C(Cn1ccc2ccccc21)NCc1ccc(OC(F)(F)F)cc1 | 971
51 | O=C(Cn1cccc1-c1nnc(C2CC2)o1)Nc1ccc(Cl)cc1F | 908
52 | Cc1nc(C)c(C(=O)Nc2ccc(F)cc2F)s1 | 755
53 | Cc1nc2ccccc2c(=O)n1Cc1noc(Cc2ccc(Br)cc2)n1 | 917
54 | CC(C)N1C(=O)c2cccnc2Sc2cc(NC(=O)c3cccnc3)ccc21 | 662
55 | Cc1nc(-c2ccccc2)sc1C(=O)N1CCC(CC(=O)N2CCOCC2)CC1 | 667
56 | COc1ccc(S(=O)(=O)N2CC3CN(C(=O)c4ccc(C#N)cc4)CC(C2)O3)cc1 | 773
57 | O=C(NCCN1CCOCC1)C1c2ccccc2CC(=O)N1Cc1ccccc1 (stereo not drawn) | 603
58 | CC(N)Cc1c[nH]c2ccc(OCc3cccs3)cc12 (stereo not drawn) | 734
59 | CN1c2ccccc2C(=O)NC12CCN(C(=O)c1ccccc1)CC2 | 700
60 | O=C(c1csc(N2CCN(c3ccccc3)CC2)n1)N1CCCCC1 | 1020
61 | CC(C)NC(=O)c1n[nH]c2c1CCCCCC2 | 754
62 | CCOC(=O)CNC(=O)NCc1cccn1Cc1ccc(Cl)cc1 | 843
63 | O=C(NCCc1ccsc1)C(=O)NCC(F)(F)F | 756
64 | Cc1ccc(-n2cc3c(N4CCCC(C(=O)NCc5ccc(C)c(C)c5)C4)ncnc3n2)cc1 (stereo not drawn) | 772
65 | Cc1ccc(N2C(=O)CN(S(C)(=O)=O)CC2(C)C(=O)NC2CCCCCCC2)cc1Cl (stereo not drawn) | 980

Row | Structure (SMILES) | RP-LC retention time [s]
66 | CCN(CC)C(=O)c1ccc2c(c1)N(CC(=O)N1CCN(c3ccccn3)CC1)C(=O)CO2 | 574
67 | C=CCN1CC[C@]2(C)c3cc(O)ccc3CC1[C@@H]2C | 594
68 | COCCOc1ccc2c(n1)CCN(C(=O)NCCC(C)C)C2 | 762
69 | Cc1cc(Cl)ccc1N1C(=O)CN(S(C)(=O)=O)CC1(C)C(=O)NC1CCCCCCC1 (stereo not drawn) | 1010
70 | CCc1ccccc1NC(=O)Cn1c(=O)n(-c2cccc(C)c2)c(=O)c2c1cc(C)n2C | 882
71 | COc1ccc(-c2noc(Cc3nc(-c4ccc(Br)cc4)cs3)n2)c(OC)c1 | 1180
72 | Cn1cc(CN2CCC(C(=O)NCCC3=CCCCC3)CC2)c2cc(Cl)ccc21 | 778
73 | CCCC(=O)Nc1ccc(CCc2nc3ccc(C(=O)NCCC(C)C)cc3[nH]2)cc1 | 674
74 | COc1ccc(NC(=O)Cn2c(N3CCOCC3)nc(C)cc2=O)cc1 | 609
75 | Fc1ccc(OCc2nnc3sc(-c4ccc(Cl)cc4)nn23)cc1 | 1030
76 | COc1ccc(C(C)NC(=O)c2c(C)sc3ccn(CC(C)C)c(=O)c23)cc1 (stereo not drawn) | 962
77 | CC(=O)N1CCc2cc(CNS(=O)(=O)c3ccc(Cl)cc3)ccc21 | 811
78 | CC1(C)Cc2c(C#N)c(N3CCN(C(=O)c4ccc([N+](=O)[O-])cc4)CC3)nc(-c3ccccc3)c2CO1 | 1140
79 | CCc1ccc(C(C)NC(=O)C2CCN(Cc3cn(C)c4ccccc34)CC2)cc1 (stereo not drawn) | 764
80 | CCN1C(=O)c2cccnc2Sc2cc(NC(=O)c3ccsc3)ccc21 | 796
81 | CCN1C(=O)c2cccnc2Sc2cc(NC(=O)c3ccc(F)c(F)c3)ccc21 | 874
82 | Cc1ccc(C)c(NC(=O)c2cn(-c3cc(-c4nc(C5CC5)no4)ccn3)cn2)c1 | 1100
83 | C[C@H]1CN(C(=O)Nc2ccc(F)cc2F)C[C@@H]1c1nc(-c2cccnc2)no1 | 770
84 | O=C(c1ccc2ccnc(N3CCN(c4ccccc4)CC3)c2c1)N1CCC(N2CCCCC2)CC1 | 589
85 | Cc1ccc(C(=O)N(C)Cc2cccnc2Oc2ccccc2)cn1 | 861
86 | CCN1C(=O)c2cccnc2Sc2cc(NC(=O)CCOC)ccc21 | 645
87 | CC(=O)Nc1nsc(N2CCC(C(=O)N3CCN(c4cccc(C)c4C)CC3)CC2)n1 | 806
88 | CCn1c(=O)sc2cc(S(=O)(=O)N3CCC(C(=O)Nc4ccc(F)c(F)c4)CC3)ccc21 | 955
